Results taken from patent US9738610B2, “Indazole derivatives and uses thereof” (Whitehead Institute for Biomedical Research, priority 2012, dated 2017).

Columns and labels:
Plasma protein binding = conditions: % bound in human plasma
Plasma stability = conditions: % remaining in human plasma after a 5-hour incubation
C. albicans CaCi-8 = test: microbe, parasite or virus in culture; type: cell-based, Candida albicans; conditions: in the presence of fluconazole; read-out: Target Potency (μM) Mean ± S.E.M CaCi-8^a IC50
Experimental: This subset was re-subjected to the primary assay and was also tested concurrently in two secondary assays. Secondary assay 1 measured chemosensitization of the more resistant CaCi-8 strain. Secondary assay 2 eliminated anything with inherently antifungal activity. […] A final assay (secondary assay 3) was incorporated to discard any compound displaying toxicity to mammalian fibroblasts. […] This screening campaign is also illustrated in FIG. 3B.
Those that inhibited growth in the resistant strain were also tested for toxicity against Candida in the absence of fluconazole and for toxicity against mammalian cells using a fluorescence reporter assay. The positive control for screening in the Candida and mammalian cell assays was the Hsp90 inhibitor geldanamycin (acting in concert with fluconazole; FIG. 4). Compounds that passed these four hurdles were binned through use of a Saccharomyces assay to determine whether the mechanism of action might be through the Hsp90 pathway, the calcineurin pathway, or an uncategorized mechanism.

C. albicans CaCi-2 = test: Secondary single-agent (no-fluconazole) activity assay; type: cell-based, Candida albicans; conditions: in the absence of fluconazole; read-out: Target Potency (μM) Mean ± S.E.M CaCi-2^b IC50
Experimental: Clear, flat-bottom, black, 384-well plates were obtained from Corning. […] Pen/Strep was obtained from Gibco and prepared 100× in PBS. Fluconazole was obtained from Sigma and prepared in 2 mg/ml stock solution in PBS. Alamar Blue was obtained from Biosource International (Catalog No. DAL1100). Phosphate buffered solution (PBS) without calcium and magnesium was obtained from Cellgro.
Fungal inoculum was prepared as follows: 500 μl of yeast was inoculated from cryopreserved stock into a 250-ml shaker flask containing 30 ml growth medium and shaken overnight (16 hours) at 30° C. The culture was spun down, and the broth was poured off and washed with RPMI medium. The culture was spun down again, and the broth was poured off and resuspended in RPMI medium. The OD 600 of 1 ml of fungal culture in a cuvette was read using a standard optical density reader with growth medium as a background blank. The desired volume of fungal inoculum was diluted to starting OD of the fungal inoculum of 0.00015 A600.
Pen/Strep was added to the media to a final 1% concentration. A Combi NL (Thermo) was used to dispense 20 μl/well of assay media into all wells. Geldanamycin (1.5 mM) and fluconazole (0.2 mg/ml) were mixed for the positive control. Then, 80 nl of positive control solution was dispensed into the positive control wells using Thermo Combi nL for a final concentration of 3 μM geldanamycin and 8 μg/ml fluconazole. Then, 100 nl of test compound were pinned from the compound plates into assay plates using a CyBi-Well pin tool. A further 20 μl/well of RPMI synthetic defined medium culture was dispensed into 384-well, black plates. Fungal suspension (20 μl/well) was dispensed into all wells. The plates were incubated in a humidified (90% humidity) Liconic incubator at 37° C. without agitation for 48 hours. Alamar Blue Reagent was diluted 1:40 in Ca/Mg-free PBS. To all plates, 6.4 μl/well of the diluted Alamar Blue was added to the plates to a final dilution factor of 1:200. The plates were incubated for 2 hours at room temperature. Next, RFU of wells was read on a standard plate reader as a measure of relative fungal growth.

yeast = molecular target: T1, yeast (Saccharomyces cerevisiae, UniProt P00163); test: IC50 values and selectivity of Table 10A (target yeast, anti-target human cytochrome); type: biochemical; conditions: for IC50: target is yeast; for Selectivity* (anti-target IC50)/(target IC50): target yeast, anti-target human cytochrome
T1 construct: Mitochondrial membranes were prepared from yeast; endogenous in cells; host or cells: yeast (mitochondrial membranes)
Experimental: All measurements were performed in triplicate.

Row | SMILES | Plasma Protein Binding (Plasma protein binding) | Plasma Stability (Plasma stability) | IC50 (C. albicans CaCi-8) | IC50 (C. albicans CaCi-2) | IC50 (yeast) | Selectivity* (anti-target IC50)/(target IC50) (yeast)
1 | O=C(O)Cn1nc(-c2ccccc2)c2ccccc21 [Compound 5309553] | 97% | > 99% | > 26 µM | > 26 µM |  | 
2 | COC(=O)Cn1nc(-c2ccccc2)c2cc(Cl)ccc21 [Compound 9551137] | > 99% | < 1.0% | 9.84 µM | > 26 µM |  | 
3 | CCOC(=O)Cn1nc(-c2ccccc2)c2ccccc21 [Compound 13330959] | 99% | 20% | > 26 µM | > 26 µM |  | 
4 | COC(=O)Cn1nc(-c2ccc(Cl)cc2)c2ccccc21 [Compound 46856253] | > 99% | 6.4% | 11.6 µM | > 26 µM |  | 
5 | COC(=O)Cn1nc(C)c2ccccc21 [Compound 46856254] | 42% | 3.0% | 21.3 ± 8.1 µM |  |  | 
6 | COC(=O)Cn1nc(-c2ccc(C)cc2)c2ccccc21 [Compound 46856255] | 96% | 4.1% | 11 µM | > 26 µM |  | 
7 | COC(=O)Cn1nc(-c2ccccc2)c2ccc(OC)cc21 [Compound 49835812] | 38% | 1.3% | 12.7 µM | > 26 µM |  | 
8 | CC(C)OC(=O)Cn1nc(-c2ccccc2)c2ccccc21 [Compound 49835820] | 99% | 53% | > 26 µM | > 26 µM |  | 
9 | COCCn1nc(-c2ccccc2)c2ccccc21 [Compound 49835825] | > 99% | 70% | > 26 µM | > 26 µM |  | 
10 | c1ccc(-c2nn(Cc3ncco3)c3ccccc23)cc1 [Compound 49835836] | > 99% | 97% | 34.2 ± 7.9 µM | > 26 µM |  | 
11 | COC(=O)Cn1nc(-c2ccc(F)cc2F)c2ccccc21 [Compound I-70] |  |  |  |  | 0.275 µM | 58.2
12 | COC(=O)Cn1nc(-c2cccc(C(F)(F)F)c2)c2ccccc21 [Compound I-72] |  |  |  |  | 0.04 µM | 200
13 | CS(=O)(=O)Cn1nc(-c2ccccc2)c2ccccc21 [Compound I-73] |  |  |  |  | > 80 µM | 
14 | COC(=O)Cn1nc(-c2cccs2)c2ccccc21 [Compound I-76] |  |  |  |  | 1.25 µM | 32
15 | COC(=O)Cn1nc(-c2cccc(OCCC34CC5CC(CC(C5)C3)C4)c2)c2ccccc21 [Compound I-80] |  |  |  |  | 0.0125 µM | 20
16 | COC(=O)Cn1nc(-c2ccccc2)c2c(C)cccc21 [Compound I-81] |  |  |  |  | 1.25 µM | 8
17 | COC(=O)Cn1nc(-c2ccccc2)c2cc(C(F)(F)F)ccc21 [Compound I-83] |  |  |  |  | 40 µM | 3
18 | Cc1nnc(Cn2nc(-c3ccccc3)c3ccccc32)o1 [Compound I-84] |  |  |  |  | 8 µM | >32
19 | c1ccc(-c2nn(Cc3ncon3)c3ccccc23)cc1 [Compound I-85] |  |  |  |  | 2 µM | 40
20 | Cc1nc(Cn2nc(-c3ccccc3)c3ccccc32)no1 [Compound I-86] |  |  |  |  | 5 µM | >32
21 | COC(=O)Cn1nc(-c2cc(C(F)(F)F)ccc2F)c2ccccc21 [Compound I-88] |  |  |  |  | 0.025 µM | 200
22 | COC(=O)Cn1nc(-c2ccccc2)c2c(C(F)(F)F)cccc21 [Compound I-89] |  |  |  |  | 10 µM | 3.75
23 | Cn1nnc(Cn2nc(-c3ccccc3)c3ccccc32)n1 [Compound I-90] |  |  |  |  | 1.25 µM | 32
24 | Cn1nnnc1Cn1nc(-c2ccccc2)c2ccccc21 [Compound I-91] |  |  |  |  | > 20 µM | 
25 | c1ccc(-c2nn(Cc3c[nH]nn3)c3ccccc23)cc1 [Compound I-93] |  |  |  |  | 25 µM | >6

Row | SMILES | Plasma Protein Binding (Plasma protein binding) | Plasma Stability (Plasma stability) | IC50 (C. albicans CaCi-8) | IC50 (C. albicans CaCi-2) | IC50 (yeast) | Selectivity* (anti-target IC50)/(target IC50) (yeast)
26 | Cn1cc(Cn2nc(-c3ccccc3)c3ccccc32)nn1 [Compound I-94] |  |  |  |  | 40 µM | >4
27 | Cn1nncc1Cn1nc(-c2ccccc2)c2ccccc21 [Compound I-95] |  |  |  |  | > 20 µM | 
28 | Cn1nnc(Cn2nc(-c3cc(C(F)(F)F)ccc3F)c3ccccc32)n1 [Compound I-98] |  |  |  |  | 0.063 µM | 48
29 | COC(=O)Cn1nc(-c2cc(OCCCC3CCCCC3)ccc2F)c2ccccc21 [Compound I-100] |  |  |  |  | 0.007 µM | 54
30 | COC(=O)Cn1nc(-c2cc(OCCCC3CCCCC3)ccc2F)c2cccc(C)c21 [Compound I-101] |  |  |  |  | 0.0015 µM | 49
31 | Cc1cccc2c(-c3cc(OCCCC4CCCCC4)ccc3F)nn(Cc3nnn(C)n3)c12 [Compound I-103] |  |  |  |  | 0.007 µM | 71
32 | FC(F)Cn1nc(-c2ccccc2)c2ccccc21 [Compound I-110] |  |  |  |  | > 120 µM | 
33 | N#Cc1ncccc1-n1nc(-c2ccccc2)c2ccccc21 [Compound I-112] |  |  |  |  | > 120 µM | 
34 | c1ccc(-c2nn(Cc3ccccn3)c3ccccc23)cc1 [Compound I-114] |  |  |  |  | > 120 µM | 
35 | COC(=O)Cn1nc(-c2cccnc2)c2ccccc21 [Compound I-121] |  |  |  |  | 15 µM | 
36 | c1ccc(-c2nn(Cc3ncccn3)c3ccccc23)cc1 [Compound I-123] |  |  |  |  | > 120 µM | 
37 | Fc1ccc(C(F)(F)F)cc1-c1nn(Cc2cnccn2)c2ccccc12 [Compound I-125] |  |  |  |  | 0.059 µM | 340
38 | Cc1cccc2c(-c3cc(C(F)(F)F)ccc3F)nn(Cc3cnccn3)c12 [Compound I-126] |  |  |  |  | 0.094 µM | 320
39 | COC(=O)Cn1nc(-c2c(C)cccc2C)c2ccccc21 [Compound I-127] |  |  |  |  | > 32 µM | 
40 | COC(=O)Cn1nc(-c2c(F)cccc2F)c2ccccc21 [Compound I-128] |  |  |  |  | 0.5 µM | 32
41 | COC(=O)Cn1nc(-c2cc(F)ccc2F)c2ccccc21 [Compound I-129] |  |  |  |  | 0.15 µM | 133
42 | COC(=O)Cn1nc(-c2cccc(F)c2F)c2ccccc21 [Compound I-130] |  |  |  |  | 0.25 µM | 32
43 | COC(=O)Cn1nc(-c2cc(F)ccc2C)c2ccccc21 [Compound I-131] |  |  |  |  | 0.4 µM | 40
44 | COC(=O)Cn1nc(-c2ccccc2Cl)c2ccccc21 [Compound I-132] |  |  |  |  | 0.75 µM | 32
45 | COC(=O)Cn1nc(-c2cccc(OCc3ccccc3)c2C)c2ccccc21 [Compound I-133] |  |  |  |  | 0.4 µM | 30
46 | COC(=O)Cn1nc(-c2cc(OCc3ccccc3)ccc2C)c2ccccc21 [Compound I-135] |  |  |  |  | 0.8 µM | 3.75
47 | COC(=O)Cn1nc(-c2cccc(OCCN(C)C)c2)c2ccccc21 [Compound I-137] |  |  |  |  | > 32 µM | 
48 | CCN(CC)CCOc1cccc(-c2nn(CC(=O)OC)c3ccccc23)c1 [Compound I-138] |  |  |  |  | > 32 µM | 
49 | COC(=O)Cn1nc(-c2cccc(OCCN(C(C)C)C(C)C)c2)c2ccccc21 [Compound I-139] |  |  |  |  | 1 µM | 6
50 | COC(=O)Cn1nc(-c2cccc(OCCC3CCCCC3)c2)c2ccccc21 [Compound I-141] |  |  |  |  | 0.0625 µM | 12
